Data reported in US20240374646A1, “COMPOSITION FOR INHIBITING INFLAMMATION OR AGING OF STEM CELLS, AND METHOD FOR INHIBITING INFLAMMATION OR AGING BY USING SAME” (MITOIMMUNE THERAPEUTICS INC., priority 2021, published 2024).

Assays:
Type in all cases: cell-based, human
[1] = tested on: monocyte chemotactic protein-1 (MCP-1); experiment: Real-time qPCR, SASP factor MCP-1; settings: vs MSCs exposed to TNF-α/IFN-γ; FIG. 4C
Description: (§1) Real-time qPCR was performed using an Easy-Spin Total RNA Kit (iNtRON, Seongnam, Korea) to extract total RNA from hPD-MSCs and RNA concentration was adjusted to 100 ng/μL using a microplate spectrophotometer (Epoch™ Microplate Spectrophotometer, BioTek, Winooski, VT, USA), and the extracted RNA was reverse transcribed into cDNA using RT PreMix (dT20) (Bioneer, Seoul, Korea) using a SimpliAmp Thermal Cycler (Life Technologies, Carlsbad, CA, USA). Real-time qPCR was performed using a real-time PCR machine (CFX Connect, Bio-Rad, Hercules, CA, USA), SYBR Green Supermix (Bio-Rad) and the relevant primers, and all experiments were performed in triplicate for statistical analysis.
(§2) In the present experiment, the expression of IL-1β, IL-6, and monocyte chemotactic protein-1 (MCP-1), which are SASP-associated factors of the untreated MSC control, the TNF-α/IFN-γ-exposed MSC control (TI), and the experimental group treated with the example compound in the TNF-α/IFN-γ-exposed MSC control was analyzed by real-time qPCR. As the real-time qPCR analysis method, the same method described in Experimental Example 1-2 above was used, and the results are shown in FIGS. 4A to 4C.

mitofusion 1 (MFN1) = experiment: Real-time qPCR, mitochondrial dynamics gene MFN1; settings: vs TNF-α/IFN-γ-exposed MSC control (TI); FIG. 2B
Description: as §1
(§3) To investigate mitochondrial dynamics, real-time qPCR was performed to analyze the expression of dynamin-related protein 1 (DRP1), which is a mitochondrial division-related gene, and mitofusion 1 (MFN1) and mitofusion 2 (MFN2), which are […] mitochondrial membrane fusion-related genes. As the real-time qPCR analysis method, the same method described in Experimental Example 1-2 above was used, and the results are shown in FIG. 2B.

IL-1β = experiment: Real-time qPCR, SASP factor IL-1β; settings: vs MSCs exposed to TNF-α/IFN-γ; FIG. 4A
Description: as §1, §2

S6K = experiment: Western blotting, S6K phosphorylation ratio (mTORC1 pathway); settings: vs MSC control exposed to TNF-α/IFN-γ; FIG. 4D
Description: Further, the phosphorylation-induced activation ratios of AKT/mTOR/S6K, which represents the mTORC1 pathway, was analyzed. mTORC1 activation is known to not only induce senescence-associated phenotypes in MSCs, but also impair quiescence and sternness. In the present experiment, the phosphorylation ratio was confirmed using western blotting analysis as described below.
Proteins were extracted with a Pro-Prep protein lysis buffer (iNtRON) and quantified by a protein quantitative analysis kit (BIOMAX, Seoul, Korea). Samples were then heated in 4× Laemmli sample buffer (Bio-Rad) containing 2-mercaptoethanol (Bio-Rad), and proteins were loaded onto an 8% sodium dodecyl sulfate polyacrylamide gel and electrophoresed at 60 V for 30 minutes, and then electrophoresed at 120 V for 1 hour. […]
Immunoreactive bands were detected using an enhanced chemiluminescence detection reagent (Clarity™ Western blot substrate, Bio-Rad) and images of the bands were obtained using ImageSaver Version 6 (ATTO, Tokyo, Japan). The intensity of each band was analyzed with CA4 analyzer software (ATTO), and each experiment was performed in triplicate under the same conditions. […]

[2] = tested on: TNF-α/IFN-γ-exposed hPD-MSCs; experiment: Mitochondrial membrane potential and distribution, MitoSpy confocal microscopy; settings: TNF-α/IFN-γ-exposed MSCs treated with compound; FIG. 2A
Description: hPD-MSCs were stained with MitoSpy Orange CMTMRos (BioLegend, SanDiego, CA, USA) to observe mitochondrial membrane potential, and stained with […]. After 72 hours with or without […] treatment, hPD-MSCs were passaged on a gelatin-coated cover glass (Sigma, St. Louis, Missouri, USA) in 12-well plates (SPL) and stained 24 hours later. The hPD-MSCs were cultured in α-MEM containing 250 nM MitoSpy Green FM and 250 nM MitoSpy Orange CMTMRo for 30 minutes. Stained hPD-MSCs were fixed with 4% paraformaldehyde (Alfa Aesar, Ward Hill, Massachusetts, USA) for 5 minutes, and then stained with 1 μg/mL Hoechst 33342® (ThermoFisher) at room temperature for 5 minutes. Finally, the cover glass was mounted on a slide glass using a mounting solution (VectaShield, ThermoFisher) and samples were imaged with a confocal microscope (LSM880; Zeiss, Oberkochen, Germany). The fluorescence intensities of confocal images were quantified using ZEN 2018 Black and Blue edition software (Zeiss). […]

mitofusion 2 (MFN2) = experiment: Real-time qPCR, mitochondrial dynamics gene MFN2; settings: vs TNF-α/IFN-γ-exposed MSC control (TI); FIG. 2B
Description: as §1, §3

O=S1(=O)CCN(Cc2cc(NC3CCOCC3)c3[nH]c(-c4ccccc4)cc3c2)CC1 [example compound, 5-[(1,1-dioxido-4-thiomorpholinyl)methyl]-2-phenyl-N-(tetrahydro-2H-pyran-4-yl)-1H-indole-7-amine]
decrease of MCP-1 expression [1]: ~15%
MFN1 expression level (mitofusion 1 (MFN1)): slightly reduced
decrease of IL-1β expression (IL-1β): about 55%
reduction of S6K phosphorylation ratio (pS6K/S6K) (S6K): ~40%
mitochondrial membrane potential and distribution [2]: restored to quiescence
reduction of MFN2 expression (mitofusion 2 (MFN2)): ~50%
